Experimental data as given in patent US20250381254A1, “Augmented Acid Alpha-Glucosidase For The Treatment Of Pompe Disease” (Amicus Therapeutics, Inc., priority 2015, published 2025).
Read-outs that look alike come from different tables or passages of the source.

Key:
[1] = target: CIMPR (Homo sapiens, UniProt P11717); assay: CIMPR affinity chromatography of rhGAA; assay type: binding; conditions: fraction of total enzyme by GAA activity
Description: To evaluate the ability of the rhGAA in Myozyme® and Lumizyme®, the only currently approved treatments for Pompe disease, these rhGAA preparations were injected onto a CIMPR column (which binds rhGAA having M6P groups) and subsequently eluted with a free […] gradient. Fractions were collected in 96-well plate and GAA activity assayed by 4MU—α-glucose substrate. The relative amounts of bound and unbound rhGAA were determined based on GAA activity and reported as the fraction of total enzyme.

[2] = test system: Gaa KO mice; assay: Glycogen reduction by ATB200 batches vs Lumizyme; assay type: in vivo, mouse; conditions: 2 IV bolus injections every other week, FIGS. 37A-37D
Description: In a related study, IV bolus tail vein injections of ATB200 (Batches A and B) and Lumizyme® were given to Gaa KO mice every other week for a total of 2 injections. Glycogen levels in tissues were measured 14 days after last administration.

[3] = Specific activity of ATB200 batches; assay type: biochemical
Description: Two batches of ATB200 with different sialic acid content were evaluated for pharmacokinetics and efficacy in Gaa KO mice.

[4] = Plasma GAA activity half-life of ATB200 batches after single IV bolus; assay type: in vivo, mouse; conditions: GAA activity in plasma, Gaa KO mice
[5] = 20 to 40 mg/kg alglucosidase alfa with 4 doses of 80 mg miglustat; 13 Pompe subjects; mean; cited from earlier work
[6] = Apparent plasma half-life in vivo
[7] = test system: Gaa KO mice; assay: Cellular dysfunction in Gaa KO mice after 2 administrations; assay type: in vivo, mouse; conditions: 20 mg/kg ERT every other week, miglustat 10 mg/kg
Description: These key muscle proteins require proper protein trafficking to the muscle cell membrane where they function. […] Alglucosidase alfa (Myozyme®) and ATB200 with and without 10 mg/kg miglustat were evaluated in Gaa KO mice at equivalent ERT dose (20 mg/kg) via an every other week dosing schedule. […] In FIGS. 32A-32D, * indicates statistically significant compared to Myozyme® alone.

[8] = Population PK model of duvoglustat in plasma and tissue; assay type: in vivo, human; conditions: typical value
Description: Concentration-time profiles of miglustat (200 mg) in Pompe disease patients are compared to those obtained following administration of duvoglustat in normal healthy volunteers (dose range: 50, 100, 250, 600, and 1000 mg). Because concentration-time profiles of miglustat in patients with Pompe disease are similar to those observed following dosing of duvoglustat in healthy subjects over 24 h, PK data collected for duvoglustat in peripheral tissues were used as a surrogate to model exposure to miglustat. A two-compartment model with linear elimination is used to characterize the concentration-time profiles of duvoglustat in tissues.

CIMPR, sequence (P11717 41-2491, species assumed): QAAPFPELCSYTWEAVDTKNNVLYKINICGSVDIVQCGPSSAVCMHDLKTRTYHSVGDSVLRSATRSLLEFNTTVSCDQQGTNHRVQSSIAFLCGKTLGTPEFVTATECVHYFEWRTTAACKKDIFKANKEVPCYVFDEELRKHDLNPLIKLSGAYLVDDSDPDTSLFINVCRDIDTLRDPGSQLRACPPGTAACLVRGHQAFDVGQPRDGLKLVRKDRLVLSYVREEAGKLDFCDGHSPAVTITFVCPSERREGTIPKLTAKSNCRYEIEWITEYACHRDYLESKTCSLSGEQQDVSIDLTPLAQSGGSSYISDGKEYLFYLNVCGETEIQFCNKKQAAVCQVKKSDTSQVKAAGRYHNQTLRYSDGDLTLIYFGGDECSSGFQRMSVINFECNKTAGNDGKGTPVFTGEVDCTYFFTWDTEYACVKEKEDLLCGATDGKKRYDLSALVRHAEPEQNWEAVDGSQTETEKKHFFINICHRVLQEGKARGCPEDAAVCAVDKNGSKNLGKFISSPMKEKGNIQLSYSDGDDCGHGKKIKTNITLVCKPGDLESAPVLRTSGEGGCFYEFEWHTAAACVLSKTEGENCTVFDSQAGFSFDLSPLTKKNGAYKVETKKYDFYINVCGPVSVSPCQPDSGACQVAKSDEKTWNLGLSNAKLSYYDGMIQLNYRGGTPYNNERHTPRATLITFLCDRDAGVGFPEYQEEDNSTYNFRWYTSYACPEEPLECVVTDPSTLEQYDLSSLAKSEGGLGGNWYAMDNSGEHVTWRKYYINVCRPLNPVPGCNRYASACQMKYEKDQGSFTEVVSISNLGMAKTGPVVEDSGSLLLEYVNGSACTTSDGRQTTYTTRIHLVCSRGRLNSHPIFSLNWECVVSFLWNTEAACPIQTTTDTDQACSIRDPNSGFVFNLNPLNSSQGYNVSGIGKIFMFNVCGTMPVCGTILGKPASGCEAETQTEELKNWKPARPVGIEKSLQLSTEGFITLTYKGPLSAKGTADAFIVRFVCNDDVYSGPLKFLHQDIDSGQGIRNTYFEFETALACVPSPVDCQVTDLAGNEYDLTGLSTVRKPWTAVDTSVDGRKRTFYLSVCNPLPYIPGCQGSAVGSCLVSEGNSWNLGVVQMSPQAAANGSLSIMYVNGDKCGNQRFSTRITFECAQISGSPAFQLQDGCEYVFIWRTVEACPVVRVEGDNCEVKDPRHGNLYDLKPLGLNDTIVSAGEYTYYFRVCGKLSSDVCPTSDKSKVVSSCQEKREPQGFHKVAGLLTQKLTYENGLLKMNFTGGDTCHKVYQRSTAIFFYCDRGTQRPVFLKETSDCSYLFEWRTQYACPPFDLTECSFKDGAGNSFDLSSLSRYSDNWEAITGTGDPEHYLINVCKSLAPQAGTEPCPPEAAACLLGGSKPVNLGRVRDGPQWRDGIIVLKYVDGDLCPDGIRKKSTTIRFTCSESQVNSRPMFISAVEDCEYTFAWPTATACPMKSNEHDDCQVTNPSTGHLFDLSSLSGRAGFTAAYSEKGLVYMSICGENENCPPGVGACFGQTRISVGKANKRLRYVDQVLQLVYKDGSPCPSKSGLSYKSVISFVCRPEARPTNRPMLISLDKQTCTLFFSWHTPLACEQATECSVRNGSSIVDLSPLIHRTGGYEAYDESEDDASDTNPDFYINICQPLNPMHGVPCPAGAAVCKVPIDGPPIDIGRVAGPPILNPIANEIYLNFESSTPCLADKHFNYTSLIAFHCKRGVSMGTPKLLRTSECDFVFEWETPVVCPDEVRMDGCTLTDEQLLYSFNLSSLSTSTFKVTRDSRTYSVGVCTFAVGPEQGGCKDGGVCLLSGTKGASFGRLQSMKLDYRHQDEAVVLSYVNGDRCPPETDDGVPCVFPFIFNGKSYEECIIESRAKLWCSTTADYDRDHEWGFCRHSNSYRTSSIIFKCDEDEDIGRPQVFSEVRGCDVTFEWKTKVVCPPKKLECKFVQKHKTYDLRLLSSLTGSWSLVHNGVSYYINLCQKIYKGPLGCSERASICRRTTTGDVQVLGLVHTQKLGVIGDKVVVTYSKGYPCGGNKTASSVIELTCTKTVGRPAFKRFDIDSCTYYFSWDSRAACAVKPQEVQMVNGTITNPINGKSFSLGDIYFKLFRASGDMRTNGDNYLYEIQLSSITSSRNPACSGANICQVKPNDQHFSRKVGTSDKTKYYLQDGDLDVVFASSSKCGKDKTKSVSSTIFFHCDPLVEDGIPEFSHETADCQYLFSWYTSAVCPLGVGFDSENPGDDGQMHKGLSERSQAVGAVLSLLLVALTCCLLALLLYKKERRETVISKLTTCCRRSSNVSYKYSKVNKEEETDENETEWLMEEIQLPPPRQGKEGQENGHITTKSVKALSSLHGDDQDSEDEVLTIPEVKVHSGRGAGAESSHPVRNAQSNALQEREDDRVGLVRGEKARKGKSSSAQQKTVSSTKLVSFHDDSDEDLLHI

Myozyme®: conventional rhGAA product (alglucosidase alfa), Genzyme
rhGAA activity eluted prior to addition of M6P (did not bind to the CIMPR) [1]: 73% | rhGAA eluted with M6P / containing M6P (CIMPR binding) [1]: 27%

Batch A: batch of ATB200 with sialic acid 4.0 mol/mol protein and M6P content 3.3 mol/mol protein
glycogen reduction vs Lumizyme® [2]: superior to Lumizyme® in reducing glycogen | Specific activity [3]: 115831 (nmol nmol 4 mu/mg protein/hr | Half-life, Mean ± SEM [4]: 30 ± 1.2 min

[199-arginine,223-histidine]prepro-α-glucosidase (human) [alglucosidase alfa]
increase in acid α-glucosidase activity exposure (AUC), co-administration vs alglucosidase alfa alone [5]: 6.8 fold | apparent plasma half-life t1/2 [6]: ~60 min | autophagy (LC3 II) and lysosomal proliferation (LAMP1) ([7]; FIGS. 29-30): negligible effects towards reducing autophagy | lysosomal glycogen in skeletal muscles ([7]; FIGS. 32A-32D): modestly reduced accumulated lysosomal glycogen in skeletal muscles

OC[C@H]1NC[C@H](O)[C@@H](O)[C@@H]1O [duvoglustat, (2R,3R,4R,5S)-2-(hydroxymethyl)piperidine-3,4,5-triol]
clearance ([8]; human, plasma and tissue, read-out: Central compartment clearance (CL2) (converted)): 3.42 mL/min | clearance ([8]; human, plasma and tissue, read-out: Systemic clearance (CL) (converted)): 157 mL/min | Vd ([8]; human, plasma and tissue, read-out: Volume of distribution (V)): 44.5 L | Apparent intercompartment clearance (CLQ) [8]: 40.6 L/h | Elimination rate constant (Keo) [8]: 0.378 | Intercompartment volume of distribution (VQ) [8]: 61.8 L | Intercompartment volume of distribution within central compartment (VQ2) [8]: 3390 L | Lag time [8]: 0.176 h | Peripheral compartment clearance (CL3) [8]: 88.0 L/h | Peripheral volume of distribution (V2) [8]: 8.68 L | Rate constant of absorption (Ka) [8]: 1.10 h⁻¹

Batch B: batch of ATB200 with sialic acid 5.4 mol/mol protein and M6P content 2.9 mol/mol protein
glycogen reduction vs Lumizyme® [2]: superior to Lumizyme® in reducing glycogen | glycogen reduction, Batch B vs Batch A ([2]; similar doses): generally more effective in reducing glycogen than Batch A | Specific activity [3]: 120929 (nmol nmol 4 mu/mg protein/hr | Half-life, Mean ± SEM [4]: 36 ± 1.8 min
